Reference: patent US20120015901A1, “METHODS AND PREPARATIONS FOR PROTECTING CRITICALLY ILL PATIENTS” (priority 2009, published 2012)

Assays:
autophagy = experiment: Yeast autophagy measurements; assay type: cell-based
Excerpt: Autophagy was monitored either by vacuolar localization of Atg8p using fluorescence microscopy of cells expressing an EGFP-Atg8 fusion protein (T. Kirisako et al. (1999) J Cell Biol 147, 435-446.) or by alkaline phosphatase (ALP) activity according to Kissova et al. (Kissova at al. (2004) J Biol Chem 279, 39068-39074) using BY4741 wild type strain transformed with and selected for stable insertion of pTN9 HindIII fragment (confirmed by PCR). In order to correct for intrinsic (background) ALP activity, BY4741 (without pTN9) have been simultaneously processed and ALP activity subtracted. For generation of EGFP-ATG8 constructs see section on Molecular Biology.

C57BL/6 mice = experiment: Aging mice with spermidine in drinking water; assay type: in vivo
Excerpt: Male and female C57BL/6 mice were purchased from the Institut für Labortierkunde und-genetik, Himberg, Austria. All animals were used at an age between 12 and 16 weeks. All mice were kept and treated according to institutional guidelines and Austrian law and the experiments were approved by the responsible governmental commission. For each group, one male and two female mice were housed singly and fed ad libitum with regular food (pellets) and spermidine was supplemented to drinking water in concentrations of 0.3 and 3 mM for 200 days. Controls were given pure drinking water. Drinking water was replaced every 2-3 days and spermidine freshly added from 1 M aqueous stock (spermidine/HCl pH 7.4), which was kept at −20° C. for no longer than one month. […] At the end of the experiment, the animals were anesthetized by ether inhalation, and exsanguinated by heart puncture. Peripheral blood was allowed to clot for 20 min, and serum was obtained by centrifugation at 200 g for 10 min. The spleens and livers (shock frozen in liquid nitrogen and stored at −80° C. upon further use) were immediately excised. Serum was used for determination of free thiol groups by Ellmans' reaction (Ellman (1959) Arch Biochem Biophys 82, 70-77 and Riener et al. (2002) Anal Bioanal Chem 373, 266-276 (2002).) as described previously (Schraml et al. (2007) Exp Gerontol 42, 1072-1078).
Extraction of polyamines from mice liver tissue was performed according to the freeze/thaw-method described by (Minocha et al. (1994)J Plant Growth Regul 13, 187-193) with slight modifications. […]
Polyamines were determined according to the method described previously by Gianotti et al. (V. Gianotti et al. (2008) J Chromatogr A 1185, 296-300.). […]
Polyamines were detected in MRM mode using following transitions: spermidine (m/z 146->72, CE 34 eV), putrescine (m/z 89->72, CE 28 eV), bis(hexamethylene)-triamine as internal standard (m/z 216->100, CE 36 eV). […]

[1] = tested on: wild type yeast (BY4741) and null mutants; experiment: Yeast chronological aging, survival plating (clonogenicity); assay type: cell-based; conditions: for Pro-survival effect of spermidine application (compared to WT): 4 mM; for increase of survival: day 20, 4 mM spermidine
Procedure: Experiments were carried out in BY4741 (MATa his3Δ1 leu2Δ0 met15Δ0 ura3Δ0) and respective null mutants, obtained from Euroscarf. The double mutant Δiki3Δsas3 was generated according to Gueldener at al. (2002) Nucleic Acids Res. 30, e23 by using gene-specific URA3-knockout cassette, amplified by PCR with pUG72 as template (Lovaas & Carlin (1991) Free Radic Biol Med 11, 455-46.). […] All spe1 double mutant strains were obtained through mating and sporulation of BY4741 Δspe1 with the respective BY4742 ([…]) single mutant strains. Single and double mutant strains were verified for correct gene deletion by PCR and further checked for consistent auxotrophies. […] Strains were grown at 28° C. on SC medium containing 0.17% yeast nitrogen base (Difco), 0.5% (NH4)2SO4 and 30 mg/l of all amino acids (except 80 mg/l histidine and 200 mg/l leucine), 30 mg/l adenine, and 320 mg/l uracil with 2% glucose (SCD). […] To construct NHP6A-EGFP in pUG35-Ura (giving rise to a C-terminally tagged chimeric fusion protein under control of the met25-Promotor) the insert was amplified by PCR using genomic DNA from BY4741 as template and cloned into pUG35 using the EcoRI restriction site. The EGFP-ATG8 construct in pUG36-Ura (N-terminally tagged fusion protein) was similarly generated, using EcoRI and ClaI restriction sites.
In case of experiments with Δspe1 (FIG. 24 A-E), all strains were inoculated to 5·10^4 cells/ml. […] Therefore, for calculation of survival rates in experiments using Δiki3Δsas3, cell numbers of each sample were determined after two pulse of sonication on ice with Sonifier 250 from Benson (Duty Cycle: 35; Output Control: 2.5). Tests for apoptotic (TUNEL and Annexin V staining) and necrotic (PI staining) markers as well as markers for oxidative stress (DHE staining) were performed as described in Dod et al. (1982) Eur J Biochem 121, 401-405). For quantifications using flow cytometry (BD FACSAria), 30,000 cells were evaluated and analyzed with BD FACSDiva software. Spermidine (S4139, Sigma, Austria) and putrescine (P5780, Sigma, Austria; 1 mM final concentration) were added to stationary cultures at day 1 of the aging experiments (24 h after inoculation). 1 M aqueous stock solution of spermidine was stored in one use aliquots at −20° C. for no longer than 1 month. For adjustment of extracellular pH (pHex) to 6 (±0.5), the required amount of sodium hydroxide was added 30 h after inoculation. The pHex was maintained at approximately 6 (±0.5) throughout the aging.

Structure (SMILES): NCCCCNCCCN [spermidine]
- autophagy (autophagy): strongly induces autophagy
- increase of serum level of free thiol groups (C57BL/6 mice; 3 mM spermidine in drinking water for 200 days): ~30%
- food and body weight (C57BL/6 mice; 0.3 and 3 mM in drinking water, 200 days (data not shown)): remained unaffected
- intracellular spermidine levels in liver cells (C57BL/6 mice; spermidine in drinking water, 200 days): significantly increased
- chronological life span of polyamine depleted cells [1]: restored
- Pro-survival effect of spermidine application (compared to WT) ([1]; deletions image P00002, HDA2, increased in early aging (fast death of controls), BUT diminished or absent day 15 to 25): increased during
- Pro-survival effect of spermidine application (compared to WT) ([1]; single deletion of HDA1): not affected
- Pro-survival effect of spermidine application (compared to WT) ([1]; single deletions image P00004, RXT2, SDS3, SAP30): not affected
- Pro-survival effect of spermidine application (compared to WT) ([1]; single deletions image P00005, HDA3, HOS1, HOS2, HOS3, HOS4, RPD3, PHO23, SIR2, HST1, HST2, SET3, SIF2): not affected
- Pro-survival effect of spermidine application (compared to WT) ([1]; single deletions shown as image P00001, survival increased during early aging): reduced
- Pro-survival effect of spermidine application (compared to WT) ([1]; single deletions shown as image P00003, during early aging (day 5 to 15)): slightly reduced
- increase in yeast life span ([1]; BY4741 wild type, spermidine supplied at day 1 (4 mM)): up to 4 times
- ability of spermidine to extend the chronological life span ([1]; deletion of SIR2): did not abrogate
- longevity upon spermidine application ([1]; single deletion of HST1, HST2, HST3, HST4): did not affect longevity
- increase of survival ([1]; wild type cells): 5 fold
- anti-aging (pro-survival) effect of spermidine ([1]; Δiki3 and Δsas3 strains): partially abrogated
- increase of survival ([1]; Δiki3Δsas3 cells): 1.3 fold
- ROS accumulation and survival during aging ([1]; Δsod2 mutant cells, 4 mM spermidine): temporarily protects from excessive ROS accumulation and loss of survival
